From ChEMBL document CHEMBL2434940, “Synthesis and antitumor activities of novel α-aminophosphonates dehydroabietic acid derivatives” (Bioorg Med Chem Lett, 2013) come the findings set out here.

Activity calls are given as the source filed them. No cut-off for these calls is given here. A value given as a limit tells only on which side of the number the result lay.

For series [1], the system named is HepG2. The experiment in a line: Cytotoxicity against human HepG2 cells after 48 hrs by MTT assay. The class given is functional, cell-based. The following applies: HepG2, 48 h. On the technique in general: Formazan colour is commonly taken as a measure of viable cells.
Series [2] deals with NCI-H460. The experiment in a line: Cytotoxicity against human NCI-H460 cells after 48 hrs by MTT assay. The following applies: NCI-H460, 48 h. The class given is functional, cell-based.
Series [3] deals with A549. Put plainly: Cytotoxicity against human A549 cells after 48 hrs by MTT assay. The class given is functional, cell-based. The following applies: A549, 48 h.
The subject of series [4] is SK-OV-3. Put plainly: Cytotoxicity against human SKOV3 cells after 48 hrs by MTT assay. Format: functional, cell-based. The following applies: SK-OV-3, 48 h.
Series [5] has as its system NCI-H460. Put plainly: Cell cycle arrest in human NCI-H460 cells assessed as accumulation at G2 phase at IC50 by propidium iodide staining-based FACS flow cytometric analysis relative to control. Format: functional. (In general: In flow cytometry, cells or beads pass a laser one at a time.)
The test system of series [6] is NCI-H460. The experiment in a line: Induction of apoptosis in human NCI-H460 cells assessed as necrotic/late apoptotic cells at 45 uM after 24 hrs by Annexin V-FITC and propidium iodide staining-based FACS flow cytometric analysis (reference value: 0.8%). Format: functional.
Series [7] relates to NCI-H460. Put plainly: Induction of apoptosis in human NCI-H460 cells assessed as loss of mitochondria membrane potential at 45 uM after 24 hrs by JC-1 staining-based fluorescence microscopic analysis. The class given is functional, cell-based.
The subject of series [8] is NCI-H460. Put plainly: Induction of apoptosis in human NCI-H460 cells assessed as early apoptotic cells at 45 uM after 24 hrs by Annexin V-FITC and propidium iodide staining-based FACS flow cytometric analysis (reference value: 1.5%). The class given is functional.
In series [9] the test system is NCI-H460. Put plainly: Cell cycle arrest in human NCI-H460 cells assessed as accumulation at S phase at IC50 by propidium iodide staining-based FACS flow cytometric analysis relative to control. Format: functional.
Series [10] relates to NCI-H460. Put plainly: Cell cycle arrest in human NCI-H460 cells assessed as accumulation at G1 phase at IC50 by propidium iodide staining-based FACS flow cytometric analysis relative to control. The class given is functional.
For series [11], the system named is NCI-H460. The experiment in a line: Induction of apoptosis in human NCI-H460 cells assessed as early apoptotic cells at 5 uM after 24 hrs by Annexin V-FITC and propidium iodide staining-based FACS flow cytometric analysis (reference value: 3.8%). The class given is functional.
Series [12] has as its system NCI-H460. The experiment in a line: Induction of apoptosis in human NCI-H460 cells assessed as necrotic/late apoptotic cells at 5 uM after 24 hrs by Annexin V-FITC and propidium iodide staining-based FACS flow cytometric analysis (reference value: 1.9%). Format: functional.
Series [13] deals with NCI-H460. The experiment in a line: Cytotoxicity against human NCI-H460 cells at 5 uM after 12 to 24 hrs by AO/EB staining-based fluorescence microscopic analysis. The class given is cell-based. The settings on record: nci-h460, 5 µM.
Series [14] concerns NCI-H460. The experiment in a line: Induction of apoptosis in human NCI-H460 cells assessed as membrane blebbing at 5 uM after 12 to 24 hrs by AO/EB staining-based fluorescence microscopic analysis. The class given is functional, cell-based.
Series [15] relates to NCI-H460. Put plainly: Induction of apoptosis in human NCI-H460 cells after 12 hrs by Annexin V-FITC and propidium iodide staining-based FACS flow cytometric analysis. Format: functional, cell-based.
The test system of series [16] is NCI-H460. Put plainly: Induction of apoptosis in human NCI-H460 cells assessed as early apoptotic cells at 5 uM after 12 hrs by Annexin V-FITC and propidium iodide staining-based FACS flow cytometric analysis (reference value: 3.8%). Format: functional.
Series [17] deals with NCI-H460. Put plainly: Induction of apoptosis in human NCI-H460 cells assessed as apoptotic ratio at 3 uM after 12 hrs by Annexin V-FITC and propidium iodide staining-based FACS flow cytometric analysis relative to control. The class given is functional.
The test system of series [18] is NCI-H460. Put plainly: Induction of apoptosis in human NCI-H460 cells assessed as cell budding at 5 uM after 12 to 24 hrs by AO/EB staining-based fluorescence microscopic analysis. The class given is functional.
Series [19] deals with NCI-H460. The experiment in a line: Induction of apoptosis in human NCI-H460 cells assessed as apoptotic ratio at 5 uM after 12 hrs by Annexin V-FITC and propidium iodide staining-based FACS flow cytometric analysis relative to control. The class given is functional.
Series [20] has as its system NCI-H460. Put plainly: Induction of apoptosis in human NCI-H460 cells assessed as necrotic/late apoptotic cells at 5 uM after 12 hrs by Annexin V-FITC and propidium iodide staining-based FACS flow cytometric analysis (reference value: 1.9%). The class given is functional.
In series [21] the test system is NCI-H460. Put plainly: Induction of apoptosis in human NCI-H460 cells assessed as loss of mitochondria membrane potential at 5 uM after 12 to 24 hrs by JC-1 staining-based fluorescence microscopic analysis. The class given is functional, cell-based.
For series [22], the system named is NCI-H460. The experiment in a line: Induction of apoptosis in human NCI-H460 cells at 5 uM after 12 to 24 hrs by Hoechst 33258 staining-based fluorescence microscopic analysis. Format: functional, cell-based.
The subject of series [23] is NCI-H460. The experiment in a line: Induction of apoptosis in human NCI-H460 cells assessed as pycnosis at 5 uM after 12 to 24 hrs by AO/EB staining-based fluorescence microscopic analysis. Format: functional, cell-based.

The term IC50 denotes the midpoint of a concentration-inhibition curve. For the molecule `CCOP(=O)(OCC)C(NC(=S)NC(=O)[C@]1(C)CCC[C@]2(C)c3ccc(C(C)C)cc3CC[C@@H]12)c1cccc(C)c1` (stereo partly specified), the 50% inhibitory concentration (IC50) in series [1] turned out to be 37.3 µM; in series [2] it was 17.8 µM; in series [3], 18.8 µM; in series [4] it was 16.6 µM.

For `CCOP(=O)(OCC)C(NC(=S)NC(=O)[C@]1(C)CCC[C@]2(C)c3ccc(C(C)C)cc3CC[C@@H]12)c1ccccc1F` (stereo partly specified), the IC50 in series [1] came to 11.4 µM; in series [2], 17.8 µM; in series [3] it was 14 µM; in series [4], 10 µM.

As to `CCOP(=O)(OCC)C(NC(=S)NC(=O)[C@]1(C)CCC[C@]2(C)c3ccc(C(C)C)cc3CC[C@@H]12)c1cccc(Cl)c1` (stereo partly specified), the concentration for half-maximal inhibition (IC50) in series [1] is greater than 50 µM; in series [2], 36.4 µM; in [3], 26.4 µM; in series [4], 19.7 µM.

Consider `CCOP(=O)(OCC)C(NC(=S)NC(=O)[C@]1(C)CCC[C@]2(C)c3ccc(C(C)C)cc3CC[C@@H]12)c1cccc2ccccc12` (stereo partly specified), for which the IC50 in series [1] is greater than 50 µM; in series [2] it was 32.6 µM; in [3], 28.3 µM; in series [4], 19.1 µM.

Take `CCOP(=O)(OCC)C(NC(=S)NC(=O)[C@]1(C)CCC[C@]2(C)c3ccc(C(C)C)cc3CC[C@@H]12)c1ccc2ccccc2c1` (stereo partly specified): the IC50 is greater than 50 µM in [1], 22.7 µM in series [2], 45.7 µM in series [3] and greater than 50 µM in series [4].

For the molecule `CCOP(=O)(OCC)C(NC(=S)NC(=O)[C@]1(C)CCC[C@]2(C)c3ccc(C(C)C)cc3CC[C@@H]12)c1ccc(F)cc1` (stereo partly specified), the IC50 in series [1] amounted to 10.3 µM; in [2], 4.39 µM; in [3] it was 23.4 µM; in series [4], 13.5 µM.

Consider `CCOP(=O)(OCC)C(NC(=S)NC(=O)[C@]1(C)CCC[C@]2(C)c3ccc(C(C)C)cc3CC[C@@H]12)c1ccc(C)cc1` (stereo partly specified), for which the IC50 in series [1] worked out at 30 µM; in series [2] it was 26.4 µM; in series [3], 21.9 µM; in series [4], 14.1 µM.

In the case of `CCOP(=O)(OCC)C(NC(=S)NC(=O)[C@]1(C)CCC[C@]2(C)c3ccc(C(C)C)cc3CC[C@@H]12)c1ccc(OC)cc1` (stereo partly specified), the IC50 in [1] was determined as 32.1 µM; in series [2], 25 µM; in series [3] it was 15.3 µM; in series [4] it was 21.4 µM.

With `CCOP(=O)(OCC)C(NC(=S)NC(=O)[C@]1(C)CCC[C@]2(C)c3ccc(C(C)C)cc3CC[C@@H]12)c1cccc(OC)c1` (stereo partly specified), the IC50 in series [1] turned out to be 18 µM; in [2], 15.8 µM; in [3] it was 29.6 µM; in series [4] it was 9.96 µM.

As for `CCOP(=O)(OCC)C(NC(=S)NC(=O)[C@]1(C)CCC[C@]2(C)c3ccc(C(C)C)cc3CC[C@@H]12)c1ccccc1Cl` (stereo partly specified), the IC50 was 24.9 µM in series [1], 30.7 µM in [2], 19.6 µM in series [3] and 15.3 µM in series [4].

Regarding `CCOP(=O)(OCC)C(NC(=S)NC(=O)[C@]1(C)CCC[C@]2(C)c3ccc(C(C)C)cc3CC[C@@H]12)c1ccc(Br)cc1` (stereo partly specified), the IC50 turned out to be 24 µM in [1], 18.7 µM in series [2], 20.2 µM in [3] and 14 µM in series [4].

As to `CCOP(=O)(OCC)C(NC(=S)NC(=O)[C@]1(C)CCC[C@]2(C)c3ccc(C(C)C)cc3CC[C@@H]12)c1ccc(Cl)cc1` (stereo partly specified), the IC50 was 26.5 µM in [1], 19.7 µM in series [2], 12.7 µM in series [3] and 14.5 µM in series [4].

As for `CCOP(=O)(OCC)C(NC(=S)NC(=O)[C@]1(C)CCC[C@]2(C)c3ccc(C(C)C)cc3CC[C@@H]12)c1ccccc1` (stereo partly specified), the IC50 in series [1] came out at 15.2 µM; in series [2], 28.1 µM; in series [3], 24.2 µM; in [4], 12.1 µM.

Turning to `O=c1[nH]cc(F)c(=O)[nH]1` [FLUOROURACIL], the Activity in series [5] came to 0%; in series [6], 6.5%; in series [8] it was 16.8%; in series [9], 28.07%; in series [10], 71.93%. The same molecule had an IC50 in series [1] of 30 µM. Further, the outcome in [7] was Active.

As for `CCOP(=O)(OCC)C(NC(=S)NC(=O)[C@]1(C)CCC[C@]2(C)c3ccc(C(C)C)cc3CC[C@@H]12)c1cccc(Br)c1` (stereo partly specified), the IC50 in series [1] was 15.2 µM; in series [2], 14.8 µM; in [3], 19.5 µM; in series [4], 20.7 µM.

For the molecule `CCOP(=O)(OCC)C(NC(=S)NC(=O)[C@]1(C)CCC[C@]2(C)c3ccc(C(C)C)cc3CC[C@@H]12)c1ccccc1OC` (stereo partly specified), the Activity was 35.3% in series [11]; 13.7% in series [5]; 16.2% in series [12]; “Non-toxic” in series [13]; “Dose-dependent effect” in [15]; 14.3% in [16]. Further, the Activity in series [17] is recorded as 19.5%; in [19] it was 51.5%; in [20], 5.2%; in series [9] it was 23.49%; in series [10], 62.8%. Moreover, the IC50 is 7.7 µM in series [1], 3.33 µM in [2], 18.4 µM in series [3] and 18.9 µM in series [4]. Moreover, the result in series [14], in series [18], in series [21], in series [22] and in series [23] was Active.

Take `CCOP(=O)(OCC)C(NC(=S)NC(=O)[C@]1(C)CCC[C@]2(C)c3ccc(C(C)C)cc3CC[C@@H]12)c1cccc(F)c1` (stereo partly specified): the IC50 came out at 31.6 µM in series [1], 27.5 µM in series [2], 24.4 µM in series [3] and 13.7 µM in [4].

On to `CCOP(=O)(OCC)C(NC(=S)NC(=O)[C@]1(C)CCC[C@]2(C)c3ccc(C(C)C)cc3CC[C@@H]12)c1ccccc1Br` (stereo partly specified), for which the IC50 turned out to be 27.1 µM in [1], 18.6 µM in series [2], 22.2 µM in [3] and 17.4 µM in series [4].
